According to patent US9771430B2, “Method of treating a metabolic disorder induced by obesity in a subject in need thereof by administering MK2/3 inhibitors” (THE TRUSTEES OF COLUMBIA UNIVERSITY IN THE CITY OF NEW YORK, priority 2011, dated 2017):

Tests used:
[1] = system: CaMKII; assay: Hepatic CaMKII phosphorylation in mice; format: in vivo, mouse
Experimental: FIGS. 1A-J. Glucagon and fasting activates hepatic CaMKII. FIG. 1A. CaMKII enzyme activity was assayed in triplicate wells of primary mouse HCs stimulated with 100 nM glucagon (Gluc) or vehicle control (Veh) for the indicated times (*P<0.05 and **P<0.01 vs. Veh; mean±S.E.M.). FIGS. 1B-1J. Extracts of HCs or liver were probed for phospho-CaMKII, total CaMKII, and β-actin by immunoblot assay. FIG. 1B. HCs were incubated with […] glucagon for the indicated times; FIG. 1C. Glucagon was added to HCs that were pre-treated for 1 h with vehicle control (Veh) or 5 μM BAPTA-AM; FIG. 1D. Glucagon was added to HCs that were pre-treated with 0.5 μM xestospongin (XesC) or to HCs from Ip3r1fl/fl mice transduced with adeno-LacZ control or adeno-Cre (bar graph=Ip3r1 mRNA levels); FIG. 1E. Glucagon was added to HCs that were pre-treated for 1 h with vehicle control (Veh) or 10 μM H89. FIG. 1F. […] FIGS. 1G-1J. In vivo experiments. In FIG. 1G, mice were treated for 30 min with 200 μg kg−1 body weight of glucagon i.p., and in FIG. 1H, mice were pre-treated with 10 pmol g−1 xestospongin C or vehicle control i.p. 4 days prior to glucagon treatment. In FIGS. 1I-1J, mice were fed ad libitum or fasted for 12 h, or fasted for 12 h and then re-fed for 4 h.
FIGS. 28A-G. (Related to FIGS. 1 and 22). FIG. 28A Mice were injected i.p. with the indicated doses of glucagon and sacrificed 15 min later. The livers were probed for phospho- and total CaMKII and β-actin by immunoblot. FIG. 28B Mice (n=5/group) were fed ad libitum or fasted for 12 h and then plasma was assayed for glucagon (*P=0.007; mean±S.E.M.). FIG. 28C Mice were injected i.p. with 10 pmol g^−1 xestospongin C (XesC) or vehicle control each day for 4 days and then fed ad libitum or fasted for 12 h. Liver phospho-CaMKII, total CaMKII, and β-actin levels were assayed by immunoblot. FIG. 28D Immunoblot of CaMKII in HCs transduced with adeno-LacZ vs. CA-CaMKII. FIG. 28E HCs were transduced with adeno-LacZ or KD-CaMKII. Cells were serum-depleted overnight and then assayed for CaMKII activity (*P<0.005; mean±S.E.M.). […]
(§1) Camk2g−/− mice were generated as described previously (Backs et al., 2010) and crossed onto the C57BL6/J background. […] Fasting blood glucose was measured in mice that were fasted for 12-14 h, with free access to water, using a glucose meter (One Touch Ultra, Lifescan). […] Blood glucose levels were measured over the following 2 h. […]
as §1, with “Camk2g^−/−” for “Camk2g−/−”, “background. ob/ob mice were obtained from Jackson Labs.” for “background.”

[2] = Fasting glucose in C57BL/6J mice treated with Xestospongin C; format: in vivo, mouse
From the text: FIGS. 49A-S. The role of IP3R in forskolin/glucagon-induced G6Pase/PEPCK in cultured hepatocytes and in fasting blood glucose in vivo. FIG. 49 A,B. FSK-Induced G6Pase and PEPCK is Calcium-Dependent. FIG. 49C-D. IP3R Activity is Required for Forskolin- and Glucagon-Induced G6Pase and PEPCK (FAO rat hepatocyte cell line). FIG. 49E-F. IP3R Activity is Required for Forskolin-Induced G6Pase and PEPCK (primary murine hepatocytes). FIG. 49G-H. IP3R1 Anti-Sense Oligonucleotide Suppresses Forskolin-Induced G6Pase and PEPCK (primary murine hepatocytes). FIG. 49I. Forskolin Activates IP3R Activity in FAO Hepatocytes (Inositol/ATP-Induced Calcium Release Assay). FIG. 49J. The PKA Inhibitor H89 Suppresses Forskolin-Induced IP3R Activation. FIG. 49K-L. IP3R Activity is Required for Forskolin-Induced PGC1a. FIG. 49M-N. Calcineurin Inhibitory Peptide Suppresses Forskolin-Induced G6Pase and PEPCK. FIG. 49O. IP3R Activity is Required for Forskolin-Induced Calcineurin Activation. FIG. 49P-Q. IP3R Activity is Required for Forskolin-Induced TORC2 Dephosphorylation and Nuclear Localization. FIG. 49R. TORC2 Transduction Partially Restores Forskolin-Induced G6Pase in IP3R-Inhibited Hepatocytes. FIG. 49S. Xestospongin C Treatment Reduces Fasting Glucose Levels in C57BL/6J Mice.

[3] = system: CRE-luciferase (luc) reporter; assay: CRE-luciferase reporter activity in primary hepatocytes; format: cell-based, mouse; settings: response to glucagon
Experimental: HEK293T (ATCC) cells were cultured in DMEM containing 10% FBS (HyClone), […] penicillin-streptomycin. Mouse primary hepatocytes were isolated and cultured as previously described (18). Cellular fractionation studies were conducted as previously reported (18). For reporter studies, Ad-CRE-luc infected hepatocytes (1 pfu per cell) were exposed to glucagon (Gcg, 100 nM) for 2˜4 h. For cyclosporine A (CsA, 10 μM) or okadaic acid (OA, 100 nM) or cell permeable calcineurin autoinhibitory peptide (10 μM) or CN585 (100 μM) or Calyculin A (10 nM) or Xestospongin C (Xc, 2 μM) or H89 (30 μM) or BAPTA (50 μM) inhibition, hepatocytes were pre-treated with the inhibitors for one hour. Luciferase activities were normalized to β-galactosidase activity from adenoviral-encoded RSV β-gal. Calcineurin activity (test kit from Enzo Life Sciences) and cellular cAMP levels (test kit from Cayman Chemical Company) were measured according to manufacturer's instructions.

Row | Compound | hepatic CaMKII phosphorylation ([1]; bolus of i.p. glucagon) | glucagon dose capable of phosphorylating CaMKII in the liver (as low as) ([1]; i.p.) | Fasting Glucose Levels [2] | glucagon-induced CaMKII phosphorylation in liver ([1]; i.p. xestospongin C 10 pmol g−1 for 4 days, then glucagon) | fasting-induced phosphorylation of CaMKII in liver ([1]; xestospongin C treatment of the mice, 12 h fast) | CRE-luciferase (luc) reporter activity / activation [3]
1 | glucagon: hormone used to stimulate hepatocytes and mice | induced | 1 µg/kg |  |  |  | 
2 | C1CCC[C@H]2CCCN3CC[C@@H](CCCCCC[C@@H]4CCCN5CC[C@@H](CC1)O[C@@H]45)O[C@@H]23 [Xestospongin C] |  |  | Reduces | markedly reduced | suppressed | blocked
